SMILES strings stand for the structures. Values after ≈ are worked out from the molar mass of the structure shown.

Series [1] concerns Staphylococcus aureus 101, MRSA and Trimethoprim-resistant; clinical isolate. As to the kind of experiment: MIC against Staphylococcus aureus 101. The class given is cell-based. The note with it: read-out: MIC Sa101. The method, then: (§1) The following Table contains inhibitory concentrations determined in the above test for representative members of the class of compound defined by formula I. The following microorganisms were tested: […]
Col. 2: MIC Sa101; μg/ml (Staphylococcus aureus 101, MRSA^*)— and Trimethoprim-resistant; clinical isolate, stored at −80° C.)
^*) MRSA=Methicillin Resistant Staphylococcus Aureus

The target in series [2] is purified DHFR of the strain 157/4696 (highly trimethoprim-resistant; clinical isolate) of Staphylococcus aureus (Staphylococcus aureus, UniProt P13955). As to the kind of experiment: biochemical.
Text: The inhibition of the enzyme was taken as a measurement for the antibacterial activity.
Series [3] addresses T1, purified DHFR of strain Sp1/1 of Streptococcus pneumoniae (Streptococcus pneumoniae, UniProt Q54801).
T1 sequence (Q54801 1-168): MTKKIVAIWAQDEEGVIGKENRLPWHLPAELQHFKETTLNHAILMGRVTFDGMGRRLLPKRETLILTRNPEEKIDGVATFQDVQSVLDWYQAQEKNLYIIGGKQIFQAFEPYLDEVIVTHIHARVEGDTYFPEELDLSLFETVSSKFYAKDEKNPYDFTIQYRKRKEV
The note with it: read-out: DHFR Spn1/1 (IC50); purified DHFR of S. pneumoniae strain Spn1/1; IC50 determined graphically.
Text: 3: DHFR Spn1/1; μM—the IC50-values in μM against the purified DHFR of the above strain Sp1/1 of Streptococcus pneumoniae.

Series [4] has as its system Streptococcus pneumoniae 1/1, Trimethoprim- and Penicillin-resistant, Serotype 6; clinical isolate. As to the kind of experiment: MIC against Streptococcus pneumoniae 1/1. To be noted: read-out: MIC Spn1/1. The class given is cell-based. How it is done: as §1
Col. 1: MIC Spn1/1; μg/ml (Streptococcus pneumoniae 1/1, Trimethoprim- and Penicillin-resistant, Serotype 6; clinical isolate, stored at −80° C.)
Lit.: H. Locher et al., Can. J. Infect. Dis.6: Suppl. C, p 469C.

`CCOc1cc(Cc2cnc(N)nc2N)cc2c1OC(C)(C)C=C2[Si](C)(C)C`: the melting point – broadly, the temperature, or range, at which the solid turns liquid – was 189 to 190 °C. Take `COc1cc(Cc2cnc(N)nc2N)cc2c1OC(C)(C)C=C2c1ccccc1` [Example 42, 5-(8-Methoxy-2,2-dimethyl-4-phenyl-2H-chromen-6-ylmethyl) -pyrimidine-2,4-diamine]: the melting point is greater than 260 °C.

In the case of `COc1cc(Cc2cnc(N)nc2N)cc2c1OC(C)(C)C=C2c1cccs1` [Example 51, 5-(8-Methoxy-2,2-dimethyl-4-thiophen-2-yl-2H-chromen-6-ylmethyl)-pyrimidine-2,4-diamine], the melting point is greater than 260 °C. On the same count and under the same terms, then `CCOc1cc(Cc2cnc(N)nc2N)cc2c1OC(C)(C)C=C2` [Example 19, 5-(8-Ethoxy-2,2-dimethyl-2H-chromen-6-ylmethyl)-pyrimidine-2,4-diamine], with 184 to 186 °C. For the compound `COc1cc(Cc2cnc(N)nc2N)cc2c1OC(C)(C)C=C2SC` [Example 4, 5-(8-Methoxy-2,2-dimethyl-4-methylsulfanyl-2H-chromen-6-ylmethyl)-pyrimidine-2,4-diamine], the MIC was determined as 2 µg/mL (≈ 5.58 µM) in series [1] and 4 µg/mL (≈ 11.2 µM) in series [4]. Further, the IC50 came to 88 nM in series [2] and 78 nM in series [3]. `CCC1=CC(C)(C)Oc2c(OC)cc(Cc3cnc(N)nc3N)cc21` [Example 3, 5-(4-Ethyl-8-methoxy-2,2-dimethyl-2H-chromen-6-ylmethyl)-pyrimidine-2,4-diamine] displayed a melting point of 256 to 257 °C. Same read-out and setting: then `CCOc1cc(Cc2cnc(N)nc2N)cc2c1OC(C)(C)C=C2C(C)(O)CC` (centres unmarked) [Example 44, 2-[6-(2,4-Diamino-pyrimidin-5-ylmethyl)-8-ethoxy-2,2-dimethyl-2H-chromen-4-yl]-butan-2-ol], with 127 to 128 °C; and `CCOc1cc(Cc2cnc(N)nc2N)cc2c1OC(C)(C)C=C2c1ccc(OC)c(OC)c1` [Example 48, 5-[4-(3,4-Dimethoxy-phenyl)-8-ethoxy-2,2-dimethyl-2H-chromen-6-ylmethyl]-pyrimidine-2,4-diamine], with 191 to 192 °C; and `CCOc1cc(Cc2cnc(N)nc2N)cc2c1OC(C)(C)C=C2c1ccsc1` [Example 37, 5-(8-Ethoxy-2,2-dimethyl-4-thiophen-3-yl-2H-chromen-6-ylmethyl)-pyrimidine-2,4-diamine], with 217 °C (dec.). For `CCOc1cc(Cc2cnc(N)nc2N)cc2c1OC(C)(C)C=C2c1cccnc1` [Example 50, 5-(8-Ethoxy-2,2-dimethyl-4-pyridin-3-yl-2H-chromen-6-ylmethyl) -pyrimidine-2,4-diamine], the melting point was 145 °C (dec.).

For `CCOc1cc(Cc2cnc(N)nc2N)cc2c1OC(C)(C)C=C2Br` [Example 7, 5-(4-Bromo-8-ethoxy-2,2-dimethyl-2H-chromen-6-ylmethyl)-pyrimidine-2,4-diamine], the MIC in series [1] and in series [4] was 0.5 µg/mL (≈ 1.23 µM) throughout. Moreover, the IC50 was determined as 110 nM in series [2] and 0.33 nM in series [3]. As to `C=C(C)C1=CC(C)(C)Oc2c(OCC)cc(Cc3cnc(N)nc3N)cc21` [Example 45, 5-(8-Ethoxy-4-isopropenyl-2,2-dimethyl-2H-chromen-6-ylmethyl)-pyrimidine-2,4-diamine], the melting point fell in the range of 188 to 189 °C. On the same count and under the same terms, then `CCOc1cc(Cc2cnc(N)nc2N)cc2c1OC(C)(C)C=C2Cl` [Example 59, 5-(4-Chloro-8-ethoxy-2,2-dimethyl-2H-chromen-6-ylmethyl)-pyrimidine-2,4-diamine], with 197 to 199 °C; and `CCOc1cc(Cc2cnc(N)nc2N)cc2c1OC(C)(C)C=C2CO` [Example 13, [6-(2,4-Diamino-pyrimidin-5-ylmethyl)-8-ethoxy-2,2-dimethyl-2H-chromen-4-yl]-methanol], with 187 to 189 °C. Turning to `CCOc1cc(Cc2cnc(N)nc2N)cc2c1OC(C)(C)C=C2C#CC(C)O` (centres unmarked) [Example 15, 4-[6-(2,4-Diamino-pyrimidin-5-ylmethyl)-8-ethoxy-2,2-dimethyl-2H-chromen-4-yl]-but-3-yn-2-ol], the melting point fell in the range of 218 to 219 °C. In the case of `COc1cc(Cc2cnc(N)nc2N)cc2c1OC(C)(C)C=C2CO` [Example 5, [6-(2,4-Diamino-pyrimidin-5-ylmethyl)-8-methoxy-2,2-dimethyl-2H-chromen-4-yl]-methanol], the melting point lay within 239 to 240 °C.

The compound `COc1cc(Cc2cnc(N)nc2N)cc2c1OC1(C=C2)CCCCC1` [Example 31, 5-[(8-Methoxyspiro[2H-1-benzopyran-2,1′-cyclohexan]-6-yl)methyl]-2,4-pyrimidine-diamine] returned a melting point of 181 to 182 °C. The same measure, in the same setting: then `CCOc1cc(Cc2cnc(N)nc2N)cc2c1OC(C)(C)C=C2c1cccc(F)c1` [Example 34, 5-[8-Ethoxy-4-(3-fluoro-phenyl)-2,2-dimethyl-2H-chromen-6-ylmethyl]-pyrimidine-2,4-diamine], with 185 to 186 °C. Same read-out and setting: then `CCOc1cc(Cc2cnc(N)nc2N)cc2c1OC(C)(C)C=C2c1ccc(F)cc1` [Example 35, 5-[8-Ethoxy-4-(4-fluoro-phenyl)-2,2-dimethyl-2H-chromen-6-ylmethyl]-pyrimidine-2,4-diamine], with 204 to 205 °C (dec.). The same measure, in the same setting: next, `CCOc1cc(Cc2cnc(N)nc2N)cc2c1OC(C)(C)C=C2C(C)(C)O` [Example 43, 2-[6-(2,4-Diamino-pyrimidin-5-ylmethyl)-8-ethoxy-2,2-dimethyl-2H-chromen-4-yl]-propan-2-ol]: 209 to 210 °C. For the compound `CCOc1cc(Cc2cnc(N)nc2N)cc(OCC)c1-n1cccc1` [Epiroprim, reference compound], the results for the MIC in series [1] and in series [4] were 16 µg/mL (≈ 45.3 µM) and 4 µg/mL (≈ 11.3 µM), respectively. The compound also showed an IC50 in series [2] of 2000 nM. For `COc1cc(Cc2cnc(N)nc2N)cc2c1OC1(C=C2Br)CCOCC1` [Example 21, 5-[(4-Bromo-2′,3′,5′,6′-tetrahydro-8-methoxyspiro[2H-1-benzopyran-2,4′-[4H]pyran]-6-yl)-methyl]-2,4-pyrimidinediamine], the MIC in series [1] came to 1 µg/mL (≈ 2.31 µM); in series [4], 4 µg/mL (≈ 9.23 µM). Further, the IC50 in series [2] worked out at 150 nM; in series [3], 52 nM.

For `COc1cc(Cc2cnc(N)nc2N)cc2c1OC(C)(C)C=C2c1ccc(F)cc1` [Example 32, 5-[4-(4-Fluoro-phenyl)-8-methoxy-2,2-dimethyl-2H-chromen-6-ylmethyl]-pyrimidine-2,4-diamine], the MIC in series [1] and in series [4] was greater than 8 µg/mL in each case. Further, the IC50 was 80 nM in series [2] and 190 nM in series [3].

Regarding `COc1cc(Cc2cnc(N)nc2N)cc2c1OC(C)(C)C=C2c1cccc(F)c1` [Example 33, 5-[4-(3-Fluoro-phenyl)-8-methoxy-2,2-dimethyl-2H-chromen-6-ylmethyl]-pyrimidine-2,4-diamine], the melting point is 267 °C (dec.). Still for that read-out and setting: then `CCOc1cc(Cc2cnc(N)nc2N)cc2c1OC(C)(C)C=C2c1cccs1` [Example 36, 5-(8-Ethoxy-2,2-dimethyl-4-thiophen-2-yl-2H-chromen-6-ylmethyl)-pyrimidine-2,4-diamine], with 213 to 214 °C (dec.). `CCOc1cc(Cc2cnc(N)nc2N)cc2c1OC(C)(C)C=C2c1cccc(N)c1` [Example 56, 5-[4-(3-Amino-phenyl)-8-ethoxy-2,2-dimethyl-2H-chromen-6-ylmethyl]-pyrimidine-2,4-diamine]: the melting point was 196 to 198 °C (dec.). The same measure, in the same setting: next, `CCOc1cc(Cc2cnc(N)nc2N)cc2c1OC(C)(C)C=C2c1cccc(NC(C)=O)c1` [Example 49, N-{3-[6-(2,4-Diamino-pyrimidin-5-ylmethyl)-8-ethoxy-2,2-dimethyl-2H-chromen-4-yl]-phenyl}-acetamide]: 145 °C (dec.). `COc1cc(Cc2cnc(N)nc2N)cc2c1OC(C)(C)C=C2c1cccc([N+](=O)[O-])c1` [Example 53, 5-[8-Methoxy-2,2-dimethyl-4-(3-nitro-phenyl)-2H-chromen-6-ylmethyl]-pyrimidine-2,4-diamine] showed a melting point of 253 to 254 °C. In the case of `COc1cc(Cc2cnc(N)nc2N)cc(OC)c1OC` [Trimethoprim, reference compound], the results for the MIC in series [1] and in series [4] were 32 µg/mL (≈ 110 µM) and greater than 32 µg/mL, respectively. In the case of `CCOc1cc(Cc2cnc(N)nc2N)cc2c1OC(C)(C)C=C2c1ccncc1` [Example 47, 5-(8-Ethoxy-2,2-dimethyl-4-pyridin-4-yl-2H-chromen-6-ylmethyl)-pyrimidine-2,4-diamine], the melting point fell in the range of 223 to 226 °C. The compound `COc1cc(Cc2cnc(N)nc2N)cc2c1OC(C)(C)C=C2C#CCO` [Example 46, 3-[6-(2,4-Diamino-pyrimidin-5-ylmethyl)-8-methoxy-2,2-dimethyl-2H-chromen-4-yl]-prop-2-yn-1-ol] showed a melting point of 236 to 237 °C. Still for that read-out and setting: then `CCOc1ccc(C2=CC(C)(C)Oc3c(OCC)cc(Cc4cnc(N)nc4N)cc32)cc1` [Example 52, 5-[8-Ethoxy-4-(4-ethoxy-phenyl)-2,2-dimethyl-2H-chromen-6-ylmethyl]-pyrimidine-2,4-diamine], with 186 to 188 °C.
